Laboratory results from patent US20170209447A1, “Use of PNP Inhibitor to Treat Relapse of Malignancy after Hematopoietic Stem Cell Transplant” (Nitor Therapeutics, priority 2014, published 2017).

Tests used:
Assay type in all cases: cell-based
human TLR2 = target: T1, human TLR2 (Homo sapiens, UniProt O60603); assay: TLR ligand screening: NF-κB SEAP reporter in HEK293 cells expressing TLR2; conditions: one concentration: Guanosine 100 uM, NTR001 10 uM, Inosine 100 uM; HEK293; triplicate; FIG. 2
T1 construct: expressed in transfected cells; host or cells: HEK293
Protocol: (§1) Toll-Like Receptor (TLR) Ligand Screening: In-vitro Activity of the PNPi, Guanosine and Inosine on Seven Different Human TLRs (TLR2, 3, 4, 5, 7, 8 and 9) as a Potential Agonist.
(§2) Method: TLR stimulation is tested by assessing NF-KB activation in HEK293 cells expressing a given TLR. The Secreted Embryonic Alkaline Phosphatase (SEAP) reporter is under the control of a promoter inducible by the transcription factor NF-κB.
(§3) This reporter gene allows the monitoring of signaling through the TLR, based on the activation of NF-κB. The compounds are evaluated at one concentration and compared to control ligands. This step is performed in triplicate.

human TLR3 = target: T2, human TLR3 (Homo sapiens, UniProt O15455); assay: TLR ligand screening: NF-κB SEAP reporter in HEK293 cells expressing TLR3; conditions: one concentration: NTR001 10 uM, Inosine 100 uM, triplicate, FIG. 2
T2 construct: expressed in transfected cells; host or cells: HEK293
T2 sequence (O15455 24-904): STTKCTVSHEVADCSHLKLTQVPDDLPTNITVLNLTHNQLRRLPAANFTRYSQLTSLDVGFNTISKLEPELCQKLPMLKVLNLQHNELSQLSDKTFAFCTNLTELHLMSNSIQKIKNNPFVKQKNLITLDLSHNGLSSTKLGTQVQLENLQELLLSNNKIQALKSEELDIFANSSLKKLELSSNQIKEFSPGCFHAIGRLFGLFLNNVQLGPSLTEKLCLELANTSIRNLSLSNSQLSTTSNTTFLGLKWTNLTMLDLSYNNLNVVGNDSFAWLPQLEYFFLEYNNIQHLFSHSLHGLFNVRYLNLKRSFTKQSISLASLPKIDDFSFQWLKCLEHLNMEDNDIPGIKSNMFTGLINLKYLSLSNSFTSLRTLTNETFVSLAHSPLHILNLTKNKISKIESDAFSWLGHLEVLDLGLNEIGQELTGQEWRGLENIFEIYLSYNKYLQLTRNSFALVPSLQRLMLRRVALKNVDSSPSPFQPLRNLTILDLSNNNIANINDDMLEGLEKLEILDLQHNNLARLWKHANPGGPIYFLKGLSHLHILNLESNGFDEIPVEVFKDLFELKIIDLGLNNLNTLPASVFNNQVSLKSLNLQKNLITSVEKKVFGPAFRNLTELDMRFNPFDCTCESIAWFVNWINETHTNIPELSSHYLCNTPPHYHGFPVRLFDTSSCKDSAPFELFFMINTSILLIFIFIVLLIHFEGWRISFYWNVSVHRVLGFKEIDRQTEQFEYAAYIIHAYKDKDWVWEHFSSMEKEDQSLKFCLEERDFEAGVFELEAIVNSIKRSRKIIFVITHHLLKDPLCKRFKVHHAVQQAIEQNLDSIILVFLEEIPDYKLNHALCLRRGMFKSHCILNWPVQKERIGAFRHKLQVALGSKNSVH
Protocol: as §1, §2, §3

human TLR4 = target: T3, human TLR4 (Homo sapiens, UniProt O00206); assay: TLR ligand screening: NF-κB SEAP reporter in HEK293 cells expressing TLR4; conditions: one concentration: Guanosine 100 uM, NTR001 10 uM, Inosine 100 uM; HEK293; triplicate; FIG. 2
T3 construct: expressed in transfected cells; host or cells: HEK293
Protocol: as §1, §2, §3

human TLR5 = target: T4, human TLR5 (Homo sapiens, UniProt O60602); assay: TLR ligand screening: NF-κB SEAP reporter in HEK293 cells expressing TLR5; conditions: one concentration: NTR001 10 uM, Inosine 100 uM, triplicate, FIG. 2
T4 construct: expressed in transfected cells; host or cells: HEK293
Protocol: as §1, §2, §3

human TLR9 = target: T5, human TLR9 (Homo sapiens, UniProt Q9NR96); assay: TLR ligand screening: NF-κB SEAP reporter in HEK293 cells expressing TLR9; conditions: one concentration: NTR001 10 uM, Inosine 100 uM, triplicate, FIG. 2
T5 construct: expressed in transfected cells; host or cells: HEK293
T5 sequence (Q9NR96 26-1032): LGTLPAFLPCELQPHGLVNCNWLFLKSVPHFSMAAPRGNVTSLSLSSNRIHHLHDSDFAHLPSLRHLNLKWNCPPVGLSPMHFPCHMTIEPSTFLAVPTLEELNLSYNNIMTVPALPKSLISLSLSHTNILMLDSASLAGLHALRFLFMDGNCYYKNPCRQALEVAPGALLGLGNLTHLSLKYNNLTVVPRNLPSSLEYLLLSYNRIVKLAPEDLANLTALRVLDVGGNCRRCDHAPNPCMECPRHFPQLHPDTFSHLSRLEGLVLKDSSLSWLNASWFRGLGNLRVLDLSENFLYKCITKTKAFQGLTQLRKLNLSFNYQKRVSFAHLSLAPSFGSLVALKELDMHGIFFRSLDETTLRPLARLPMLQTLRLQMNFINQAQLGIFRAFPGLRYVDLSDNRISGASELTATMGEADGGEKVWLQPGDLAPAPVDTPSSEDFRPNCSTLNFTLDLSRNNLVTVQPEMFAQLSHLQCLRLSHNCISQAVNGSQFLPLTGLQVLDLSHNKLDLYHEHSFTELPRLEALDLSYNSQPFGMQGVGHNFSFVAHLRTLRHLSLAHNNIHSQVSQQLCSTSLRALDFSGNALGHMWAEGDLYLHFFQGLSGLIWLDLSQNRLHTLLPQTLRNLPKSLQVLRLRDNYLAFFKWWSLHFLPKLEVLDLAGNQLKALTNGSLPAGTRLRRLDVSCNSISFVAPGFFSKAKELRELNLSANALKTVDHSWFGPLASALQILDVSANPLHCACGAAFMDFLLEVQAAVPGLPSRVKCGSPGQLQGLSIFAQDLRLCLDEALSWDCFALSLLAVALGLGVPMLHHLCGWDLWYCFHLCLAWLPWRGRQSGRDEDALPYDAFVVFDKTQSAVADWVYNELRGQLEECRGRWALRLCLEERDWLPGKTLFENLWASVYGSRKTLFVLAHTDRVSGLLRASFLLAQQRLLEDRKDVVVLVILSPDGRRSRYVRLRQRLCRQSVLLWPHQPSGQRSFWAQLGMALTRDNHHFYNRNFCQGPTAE
Protocol: as §1, §2, §3

T1 sequence (O60603 21-784): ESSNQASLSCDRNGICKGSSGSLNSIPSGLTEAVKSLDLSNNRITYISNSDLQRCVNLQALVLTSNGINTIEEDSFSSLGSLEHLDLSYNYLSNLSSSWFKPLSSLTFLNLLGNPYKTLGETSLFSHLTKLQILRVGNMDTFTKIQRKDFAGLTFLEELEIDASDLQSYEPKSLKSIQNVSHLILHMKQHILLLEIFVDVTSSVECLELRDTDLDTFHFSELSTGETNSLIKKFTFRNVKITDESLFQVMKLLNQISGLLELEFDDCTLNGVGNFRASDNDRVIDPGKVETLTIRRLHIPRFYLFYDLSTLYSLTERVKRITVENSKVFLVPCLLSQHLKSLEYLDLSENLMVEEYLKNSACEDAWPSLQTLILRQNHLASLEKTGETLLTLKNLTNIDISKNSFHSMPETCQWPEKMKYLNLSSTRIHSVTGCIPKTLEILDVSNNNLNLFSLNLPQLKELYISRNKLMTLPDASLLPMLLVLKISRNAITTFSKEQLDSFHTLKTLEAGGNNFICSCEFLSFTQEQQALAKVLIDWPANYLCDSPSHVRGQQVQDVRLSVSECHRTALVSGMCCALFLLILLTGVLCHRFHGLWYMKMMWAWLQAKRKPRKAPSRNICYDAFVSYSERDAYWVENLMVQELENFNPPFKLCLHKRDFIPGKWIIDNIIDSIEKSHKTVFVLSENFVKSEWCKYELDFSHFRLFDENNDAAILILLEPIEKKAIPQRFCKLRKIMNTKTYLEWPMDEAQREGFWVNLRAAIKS
T3 sequence (O00206 24-839): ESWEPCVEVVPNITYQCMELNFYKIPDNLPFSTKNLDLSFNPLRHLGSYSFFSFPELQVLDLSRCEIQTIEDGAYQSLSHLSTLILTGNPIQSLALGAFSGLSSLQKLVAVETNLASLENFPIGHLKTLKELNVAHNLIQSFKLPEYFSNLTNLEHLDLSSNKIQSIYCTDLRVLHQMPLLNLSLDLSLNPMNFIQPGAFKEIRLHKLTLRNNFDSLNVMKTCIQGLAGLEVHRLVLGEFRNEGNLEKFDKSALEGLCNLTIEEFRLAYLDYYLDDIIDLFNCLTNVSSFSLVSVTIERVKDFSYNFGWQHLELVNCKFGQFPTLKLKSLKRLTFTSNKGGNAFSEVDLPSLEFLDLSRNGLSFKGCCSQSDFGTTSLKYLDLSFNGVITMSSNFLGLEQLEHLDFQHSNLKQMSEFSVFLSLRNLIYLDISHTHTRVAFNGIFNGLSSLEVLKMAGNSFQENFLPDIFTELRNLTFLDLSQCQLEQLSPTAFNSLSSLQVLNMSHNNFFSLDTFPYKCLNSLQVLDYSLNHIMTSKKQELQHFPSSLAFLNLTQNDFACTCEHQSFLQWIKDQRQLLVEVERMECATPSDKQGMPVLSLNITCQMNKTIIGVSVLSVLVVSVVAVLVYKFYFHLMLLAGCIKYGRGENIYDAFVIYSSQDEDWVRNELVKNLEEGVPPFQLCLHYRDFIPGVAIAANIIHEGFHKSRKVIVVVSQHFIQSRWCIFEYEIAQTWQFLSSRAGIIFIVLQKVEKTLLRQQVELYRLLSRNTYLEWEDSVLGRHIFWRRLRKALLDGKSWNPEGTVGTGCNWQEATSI
T3 sequence (Q9Y6Y9 17-160 partner limits assumed): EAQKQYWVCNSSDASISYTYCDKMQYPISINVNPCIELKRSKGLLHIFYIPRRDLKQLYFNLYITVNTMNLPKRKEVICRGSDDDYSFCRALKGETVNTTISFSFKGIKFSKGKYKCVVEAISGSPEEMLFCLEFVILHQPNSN
T4 sequence (O60602 21-858): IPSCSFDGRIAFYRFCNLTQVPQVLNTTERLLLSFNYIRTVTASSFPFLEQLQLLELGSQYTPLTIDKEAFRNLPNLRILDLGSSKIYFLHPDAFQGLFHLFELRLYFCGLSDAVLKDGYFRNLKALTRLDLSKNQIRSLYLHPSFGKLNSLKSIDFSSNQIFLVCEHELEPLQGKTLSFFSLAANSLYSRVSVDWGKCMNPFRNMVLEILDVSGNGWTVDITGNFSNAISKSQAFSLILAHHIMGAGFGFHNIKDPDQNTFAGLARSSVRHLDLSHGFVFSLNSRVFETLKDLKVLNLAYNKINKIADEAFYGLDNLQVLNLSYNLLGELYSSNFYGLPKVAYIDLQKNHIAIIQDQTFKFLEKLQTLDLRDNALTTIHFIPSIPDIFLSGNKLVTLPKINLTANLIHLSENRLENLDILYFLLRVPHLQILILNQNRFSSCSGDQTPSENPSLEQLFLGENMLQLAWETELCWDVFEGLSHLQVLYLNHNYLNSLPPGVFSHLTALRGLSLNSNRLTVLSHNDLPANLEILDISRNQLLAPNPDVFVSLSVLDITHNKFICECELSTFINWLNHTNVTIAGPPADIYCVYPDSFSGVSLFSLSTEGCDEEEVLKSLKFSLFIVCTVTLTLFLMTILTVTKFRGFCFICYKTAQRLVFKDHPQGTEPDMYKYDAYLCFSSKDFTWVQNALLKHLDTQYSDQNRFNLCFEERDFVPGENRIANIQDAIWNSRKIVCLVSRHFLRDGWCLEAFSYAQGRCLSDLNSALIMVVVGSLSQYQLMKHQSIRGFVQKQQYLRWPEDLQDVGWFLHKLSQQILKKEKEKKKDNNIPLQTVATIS

OC[C@H]1O[C@@H](n2cnc3c(O)ncnc32)[C@H](O)[C@@H]1O [Inosine, inosine]
do not exhibit a stimulatory effect: stimulatory effect on human TLR2 (NF-κB activation) (human TLR2) | stimulatory effect on human TLR3 (NF-κB activation) (human TLR3) | stimulatory effect on human TLR4 (NF-κB activation) (human TLR4) | stimulatory effect on human TLR5 (NF-κB activation) (human TLR5) | stimulatory effect on human TLR9 (NF-κB activation) (human TLR9)

O=c1[nH]cnc2c([C@@H]3N[C@H](CO)[C@@H](O)[C@H]3O)c[nH]c12 [NTR001, 7-[(2S,3S,4R,5R)-3,4-dihydroxy-5-(hydroxymethyl)-2-pyrrolidinyl]-1,5-dihyro-4-H-pyrrolo-[3,2-d]pyrimidin-4-one]
do not exhibit a stimulatory effect: stimulatory effect on human TLR2 (NF-κB activation) (human TLR2) | stimulatory effect on human TLR3 (NF-κB activation) (human TLR3) | stimulatory effect on human TLR4 (NF-κB activation) (human TLR4) | stimulatory effect on human TLR5 (NF-κB activation) (human TLR5) | stimulatory effect on human TLR9 (NF-κB activation) (human TLR9)
